# Reference: PMC11374673, “Discovery of isoquinoline sulfonamides as allosteric gyrase inhibitors with activity against fluoroquinolone-resistant bacteria” (Nature Chemistry, 2024)
# Several values for one entry are separate records, joined by “and”; a condition that tells them apart may be missing. Equal entries are not always repeated.
# How the values were obtained:
# HEK293T = experiment: Cytotoxicity assay (MTT); type: cell-based, human; details: for MTT data (raw readout): HEK293T; for IC50: 24 h, MTT
# Method in brief: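 HEK293T cells, maintained at 37 °C and 7% CO2 in Dulbecco’s modified Eagle medium with GlutaMax, antibiotics and serum, were plated in clear 96-well plates in 100 µl medium containing 1% fetal bovine serum and left 24 h to attach. After 24 h compound exposure, MTT (0.40 mg ml^−1) was added for 2 h. Formazan was dissolved in 100 µl DMSO and absorbance measured at 570 nm. Background-corrected IC50 values came from variable-slope non-linear fits.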
# HepG2 = experiment: Cytotoxicity assay (MTT); type: cell-based, human; details: for IC50: MTT, 24 h
# E. coli W3110 = experiment: Checkerboard assay with PMBN; details: for Checkerboard well reading (growth), Average values: average of 3 wells; for Checkerboard well reading (growth): single wells (triplicate)
# [1] = LEI-801 0.78125 µM + PMBN 0.5 µM
# [2] = LEI-801 0.78125 µM + PMBN 16 µM
# [3] = LEI-801 0.78125 µM + PMBN 32 µM
# [4] = LEI-801 1.5625 µM + PMBN 0.5 µM
smiles,measurement,setting,value
O=S(=O)(NC[C@H]1CC[C@@H](c2ccc(-c3ccc(F)nc3)cc2)N1)c1cccc2cnccc12 [LEI-801],MTT data (raw readout),"HEK293T; 0.023 uM, experiment n = 1, technical triplicates, listed as LEI-801 (99)",1.090 and 1.041 and 1.057
same,MTT data (raw readout),"HEK293T; 0.023 uM, experiment n = 2, technical triplicates, listed as LEI-801 (99)",0.858 and 0.977 and 0.938
same,MTT data (raw readout),"HEK293T; 0.068 uM, experiment n = 1, technical triplicates, listed as LEI-801 (99)",1.154 and 1.082 and 1.072
same,MTT data (raw readout),"HEK293T; 0.068 uM, experiment n = 2, technical triplicates, listed as LEI-801 (99)",1.027 and 1.034 and 1.015
same,MTT data (raw readout),"HEK293T; 0.21 uM, experiment n = 1, technical triplicates, listed as LEI-801 (99)",1.127 and 1.121 and 1.094
same,MTT data (raw readout),"HEK293T; 0.21 uM, experiment n = 2, technical triplicates, listed as LEI-801 (99)",0.913 and 0.892 and 0.944
same,MTT data (raw readout),"HEK293T; 0.62 uM, experiment n = 1, technical triplicates, listed as LEI-801 (99)",1.141 and 1.092 and 0.930
same,MTT data (raw readout),"HEK293T; 0.62 uM, experiment n = 2, technical triplicates, listed as LEI-801 (99)",1.083 and 0.946 and 1.064
same,MTT data (raw readout),"HEK293T; 1.85 uM, experiment n = 1, technical triplicates, listed as LEI-801 (99)",1.167 and 1.005 and 0.915
same,MTT data (raw readout),"HEK293T; 5.6 uM, experiment n = 1, technical triplicates, listed as LEI-801 (99)",0.937 and 1.019 and 1.040
same,MTT data (raw readout),"HEK293T; 5.6 uM, experiment n = 2, technical triplicates, listed as LEI-801 (99)",1.075 and 0.764 and 0.931
same,MTT data (raw readout),"HEK293T; 16.7 uM, experiment n = 1, technical triplicates, listed as LEI-801 (99)",0.838 and 0.818 and 0.874
same,MTT data (raw readout),"HEK293T; 16.7 uM, experiment n = 2, technical triplicates, listed as LEI-801 (99)",0.745 and 0.746 and 0.735
same,MTT data (raw readout),"HEK293T; 50 uM, experiment n = 1, technical triplicates, listed as LEI-801 (99)",0.494 and 0.473 and 0.487
same,MTT data (raw readout),"HEK293T; 50 uM, experiment n = 2, technical triplicates, listed as LEI-801 (99)",0.506 and 0.491 and 0.495
same,IC50,"HEK293T; Homo sapiens, HEK-293T",51 µM
same,IC50,HEK293T; listed as LEI-801 (99),> 50 µM
same,MTT data (raw readout),"HepG2; HepG2, 0.023 uM, experiment n = 1, technical triplicates, listed as LEI-801 (99)",0.358 and 0.291 and 0.289
same,MTT data (raw readout),"HepG2; HepG2, 0.023 uM, experiment n = 2, technical triplicates, listed as LEI-801 (99)",0.296 and 0.284 and 0.274
same,MTT data (raw readout),"HepG2; HepG2, 0.068 uM, experiment n = 1, technical triplicates, listed as LEI-801 (99)",0.356 and 0.307 and 0.313
same,MTT data (raw readout),"HepG2; HepG2, 0.068 uM, experiment n = 2, technical triplicates, listed as LEI-801 (99)",0.301 and 0.287 and 0.260
same,MTT data (raw readout),"HepG2; HepG2, 0.21 uM, experiment n = 1, technical triplicates, listed as LEI-801 (99)",0.330 and 0.315 and 0.323
same,MTT data (raw readout),"HepG2; HepG2, 0.21 uM, experiment n = 2, technical triplicates, listed as LEI-801 (99)",0.350 and 0.289 and 0.265
same,MTT data (raw readout),"HepG2; HepG2, 0.62 uM, experiment n = 1, technical triplicates, listed as LEI-801 (99)",0.417 and 0.319 and 0.320
same,MTT data (raw readout),"HepG2; HepG2, 0.62 uM, experiment n = 2, technical triplicates, listed as LEI-801 (99)",0.301 and 0.282 and 0.253
same,MTT data (raw readout),"HepG2; HepG2, 1.85 uM, experiment n = 1, technical triplicates, listed as LEI-801 (99)",0.361 and 0.335 and 0.354
same,MTT data (raw readout),"HepG2; HepG2, 1.85 uM, experiment n = 2, technical triplicates, listed as LEI-801 (99)",0.263 and 0.269 and 0.244
same,MTT data (raw readout),"HepG2; HepG2, 5.6 uM, experiment n = 1, technical triplicates, listed as LEI-801 (99)",0.370 and 0.351 and 0.360
same,MTT data (raw readout),"HepG2; HepG2, 5.6 uM, experiment n = 2, technical triplicates, listed as LEI-801 (99)",0.293 and 0.267 and 0.296
same,MTT data (raw readout),"HepG2; HepG2, 16.7 uM, experiment n = 1, technical triplicates, listed as LEI-801 (99)",0.376 and 0.357 and 0.431
same,MTT data (raw readout),"HepG2; HepG2, 16.7 uM, experiment n = 2, technical triplicates, listed as LEI-801 (99)",0.300 and 0.252 and 0.259
same,MTT data (raw readout),"HepG2; HepG2, 50 uM, experiment n = 1, technical triplicates, listed as LEI-801 (99)",0.327 and 0.318 and 0.307
same,MTT data (raw readout),"HepG2; HepG2, 50 uM, experiment n = 2, technical triplicates, listed as LEI-801 (99)",0.232 and 0.220 and 0.225
same,IC50,"HepG2; Homo sapiens, HepG2, 24 h",> 100 µM
same,IC50,HepG2; listed as LEI-801 (99),> 50 µM
same,MIC,"E. coli W3110; Escherichia coli, W3110",200 µM
same,"Checkerboard well reading (growth), Average values",E. coli W3110; LEI-801 0.78125 µM + PMBN 0 µM,0.7994
same,Checkerboard well reading (growth),E. coli W3110; LEI-801 0.78125 µM + PMBN 0 µM,0.8278 and 0.8 and 0.7705
same,"Checkerboard well reading (growth), Average values",E. coli W3110; [1],0.7351
same,Checkerboard well reading (growth),E. coli W3110; [1],0.7319 and 0.7576 and 0.7157
same,"Checkerboard well reading (growth), Average values",E. coli W3110; LEI-801 0.78125 µM + PMBN 1 µM,0.8267
same,Checkerboard well reading (growth),E. coli W3110; LEI-801 0.78125 µM + PMBN 1 µM,0.8444 and 0.8247 and 0.811
same,"Checkerboard well reading (growth), Average values",E. coli W3110; LEI-801 0.78125 µM + PMBN 2 µM,0.8646
same,Checkerboard well reading (growth),E. coli W3110; LEI-801 0.78125 µM + PMBN 2 µM,0.8699 and 0.8873 and 0.8367
same,"Checkerboard well reading (growth), Average values",E. coli W3110; LEI-801 0.78125 µM + PMBN 4 µM,0.6877
same,Checkerboard well reading (growth),E. coli W3110; LEI-801 0.78125 µM + PMBN 4 µM,0.7078 and 0.6767 and 0.6785
same,"Checkerboard well reading (growth), Average values",E. coli W3110; LEI-801 0.78125 µM + PMBN 8 µM,0.5094
same,Checkerboard well reading (growth),E. coli W3110; LEI-801 0.78125 µM + PMBN 8 µM,0.4316 and 0.5477 and 0.5488
same,"Checkerboard well reading (growth), Average values",E. coli W3110; [2],0.3746
same,Checkerboard well reading (growth),E. coli W3110; [2],0.3718 and 0.3921 and 0.3599
same,"Checkerboard well reading (growth), Average values",E. coli W3110; [3],0.3716
same,Checkerboard well reading (growth),E. coli W3110; [3],0.3691 and 0.3426 and 0.4032
same,"Checkerboard well reading (growth), Average values",E. coli W3110; LEI-801 1.5625 µM + PMBN 0 µM,0.7861
same,Checkerboard well reading (growth),E. coli W3110; LEI-801 1.5625 µM + PMBN 0 µM,0.8385 and 0.7794 and 0.7404
same,"Checkerboard well reading (growth), Average values",E. coli W3110; [4],0.7438
same,Checkerboard well reading (growth),E. coli W3110; [4],0.7318 and 0.7541 and 0.7454
same,"Checkerboard well reading (growth), Average values",E. coli W3110; LEI-801 1.5625 µM + PMBN 1 µM,0.7641
same,Checkerboard well reading (growth),E. coli W3110; LEI-801 1.5625 µM + PMBN 1 µM,0.7579 and 0.7961 and 0.7382
same,"Checkerboard well reading (growth), Average values",E. coli W3110; LEI-801 1.5625 µM + PMBN 2 µM,0.7789
same,Checkerboard well reading (growth),E. coli W3110; LEI-801 1.5625 µM + PMBN 2 µM,0.7943 and 0.7704 and 0.772
same,"Checkerboard well reading (growth), Average values",E. coli W3110; LEI-801 1.5625 µM + PMBN 4 µM,0.5724
same,Checkerboard well reading (growth),E. coli W3110; LEI-801 1.5625 µM + PMBN 4 µM,0.635 and 0.5325 and 0.5498
same,"Checkerboard well reading (growth), Average values",E. coli W3110; LEI-801 1.5625 µM + PMBN 8 µM,0.3746
same,Checkerboard well reading (growth),E. coli W3110; LEI-801 1.5625 µM + PMBN 8 µM,0.3243 and 0.3533 and 0.4462
